Source: ChEMBL document CHEMBL2146425, “Solid-phase synthesis and biological evaluation of Joro spider toxin-4 from Nephila clavata” (J Nat Prod, 2011)

Tests used:
[1] = biological target: Glutamate NMDA receptor; Grin1/Grin2a (Rattus norvegicus) (UniProt P35439+Q00959); experiment: Inhibition of rat GluN1/2A expressed in xenopus laevis oocytes assessed as inhibition of glycine-evoked current at membrane potential of -60 mV at 100 uM by voltage-clamp electrophysiology; type: cell-based; details: Oocyte
[2] = biological target: Glutamate receptor 1 (Rattus norvegicus) (UniProt P19490); experiment: Inhibition of rat GluA1 expressed in xenopus laevis oocytes assessed as inhibition of glutamate-evoked current at membrane potential of -60 mV at 100 uM by voltage-clamp electrophysiology; type: cell-based; details: Oocyte
Glutamate receptor 1 = Glutamate receptor 1 (Rattus norvegicus, UniProt P19490); experiment: Inhibition of rat GluA1 expressed in xenopus laevis oocytes assessed as inhibition of glutamate-evoked current at membrane potential of -60 mV by voltage-clamp electrophysiology; type: cell-based, Oocyte
[3] = biological target: Glutamate NMDA receptor; Grin1/Grin2a (Rattus norvegicus, UniProt P35439+Q00959); experiment: Inhibition of rat GluN1/2A expressed in xenopus laevis oocytes assessed as inhibition of glycine-evoked current at membrane potential of -60 mV by voltage-clamp electrophysiology; type: cell-based, Oocyte

Glutamate receptor 1, sequence (P19490 whole entry): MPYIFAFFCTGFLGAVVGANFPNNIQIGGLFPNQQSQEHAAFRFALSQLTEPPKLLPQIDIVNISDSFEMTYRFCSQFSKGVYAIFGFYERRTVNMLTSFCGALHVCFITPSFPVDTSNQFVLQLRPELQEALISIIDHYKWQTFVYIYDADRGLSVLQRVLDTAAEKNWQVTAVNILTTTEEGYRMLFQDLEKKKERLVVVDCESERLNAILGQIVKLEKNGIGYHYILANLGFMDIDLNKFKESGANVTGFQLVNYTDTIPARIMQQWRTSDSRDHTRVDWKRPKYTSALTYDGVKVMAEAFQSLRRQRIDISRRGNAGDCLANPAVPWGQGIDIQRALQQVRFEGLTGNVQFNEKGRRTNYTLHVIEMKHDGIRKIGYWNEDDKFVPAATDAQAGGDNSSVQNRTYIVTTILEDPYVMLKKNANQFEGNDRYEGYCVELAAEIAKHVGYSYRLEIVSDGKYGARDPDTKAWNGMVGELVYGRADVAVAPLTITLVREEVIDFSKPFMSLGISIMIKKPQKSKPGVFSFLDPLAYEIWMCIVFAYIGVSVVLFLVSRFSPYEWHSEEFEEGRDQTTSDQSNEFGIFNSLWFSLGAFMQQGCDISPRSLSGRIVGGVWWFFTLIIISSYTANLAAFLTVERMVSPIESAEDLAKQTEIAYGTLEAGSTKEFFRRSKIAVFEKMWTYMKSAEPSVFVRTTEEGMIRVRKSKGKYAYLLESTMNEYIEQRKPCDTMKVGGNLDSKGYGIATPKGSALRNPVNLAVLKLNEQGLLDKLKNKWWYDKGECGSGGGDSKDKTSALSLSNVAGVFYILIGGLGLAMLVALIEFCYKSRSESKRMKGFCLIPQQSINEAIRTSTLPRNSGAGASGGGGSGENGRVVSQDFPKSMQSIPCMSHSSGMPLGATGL
Glutamate receptor 1 (Rattus norvegicus), sequence (P19490 whole entry): as above

SMILES: N=C(N)NCCC[C@H](N)C(=O)N[C@@H](CCCN)C(=O)NCCCCCNC(=O)[C@H](CC(N)=O)NC(=O)Cc1ccc(O)cc1O
- inhibition [1]: 25%
- inhibition [2]: 25%

SMILES: N=C(N)NCCC[C@H](N)C(=O)NCCCNCCCNCCCCCNC(=O)[C@H](CC(N)=O)NC(=O)Cc1ccc(O)cc1O
- IC50 (Glutamate receptor 1): 77 nM
- IC50 [3]: 74 nM
